Measurements as given in US8574563B2 (Bristol-Myers Squibb Company, priority 2006, dated 2013).
Where two headings read alike, the source gives them in different places.

Test system: HCV 1b-377-neo replicon cells
Experiment: HCV replicon assay, HCV 1b-377-neo replicon cells (1b FRET)
Type: cell-based, Hepatitis C virus genotype 1b
Conditions: HCV 1b-377-neo replicon cells, HCV 1b genotype, read-out: EC50 range against HCV 1b (Table 2, Range)
Summary of the method: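 Compounds were tested in genotype 1b subgenomic replicon cells carrying a neomycin marker, alongside a matched replicon line with an NS5A Y2065H substitution that confers resistance to a reference NS5A inhibitor.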

Row | Structure (SMILES) | EC50 (Hepatitis C virus) | EC50
1 | CN(C)[C@@H](C(=O)N1CCC[C@H]1c1ncc(-c2ccc(-c3ccc(-c4cnc([C@@H]5CCCN5C(=O)c5cccc(C(=O)c6ccccc6)c5)[nH]4)cc3)cc2)[nH]1)c1ccccc1 [Example 94-32, (3-(((2S)-2-(5-(4′-(2-((2S)-1-((2R)-2-(dimethylamino)-2-phenylacetyl)-2-pyrrolidinyl)-1H-imidazol-5-yl)-4-biphenylyl)-1H-imidazol-2-yl)-1-pyrrolidinyl)carbonyl)phenyl)(phenyl)methanone] | 1 to 99 nM | 
2 | CN(C)[C@@H](C(=O)N1CCC[C@H]1c1ncc(-c2ccc(-c3ccc(-c4cnc([C@@H]5CCCN5C(=O)[C@H]5CC[C@@H](NC(=O)OC(C)(C)C)CC5)[nH]4)cc3)cc2)[nH]1)c1ccccc1 [Example 94-33, tert-butyl (cis-4-(((2S)-2-(5-(4′-(2-((2S)-1-((2R)-2-(dimethylamino)-2-phenylacetyl)-2-pyrrolidinyl)-1H-imidazol-5-yl)-4-biphenylyl)-1H-imidazol-2-yl)-1-pyrrolidinyl)carbonyl)cyclohexyl)carbamate] | 1 to 99 nM | 
3 | CN(C)[C@@H](C(=O)N1CCC[C@H]1c1ncc(-c2ccc(-c3ccc(-c4cnc([C@@H]5CCCN5C(=O)C5CCN(C(=O)OC(C)(C)C)CC5)[nH]4)cc3)cc2)[nH]1)c1ccccc1 [Example 94-34, ′tert-butyl 4-(((2S)-2-(5-(4′-(2-((2S)-1-((2R)-2-(dimethylamino)-2-phenylacetyl)-2-pyrrolidinyl)-1H-imidazol-5-yl)-4-biphenylyl)-1H-imidazol-2-yl)-1-pyrrolidinyl)carbonyl)-1-piperidinecarboxylate] |  | 1 to 99 nM
4 | CN(C)[C@@H](C(=O)N1CCC[C@H]1c1ncc(-c2ccc(-c3ccc(-c4cnc([C@@H]5CCCN5C(=O)C(c5ccccc5)c5ccccc5)[nH]4)cc3)cc2)[nH]1)c1ccccc1 [Example 94-36, (1R)-2-((2S)-2-(5-(4′-(2-((2S)-1-(diphenylacetyl)-2-pyrrolidinyl)-1H-imidazol-5-yl)-4-biphenylyl)-1H-imidazol-2-yl)-1-pyrrolidinyl)-N,N-dimethyl-2-oxo-1-phenylethanamine] | 0.001 to 0.999 nM | 
5 | CC(=O)CCC(=O)N1CCC[C@H]1c1ncc(-c2ccc(-c3ccc(-c4cnc([C@@H]5CCCN5C(=O)[C@@H](c5ccccc5)N(C)C)[nH]4)cc3)cc2)[nH]1 [Example 94-37, 5-((2S)-2-(5-(4′-(2-((2S)-1-((2R)-2-(dimethylamino)-2-phenylacetyl)-2-pyrrolidinyl)-1H-imidazol-5-yl)-4-biphenylyl)-1H-imidazol-2-yl)-1-pyrrolidinyl)-5-oxo-2-pentanone] | 1 to 99 nM | 
6 | CN(C)[C@@H](C(=O)N1CCC[C@H]1c1ncc(-c2ccc(-c3ccc(-c4cnc([C@@H]5CCCN5C(=O)c5ccccc5F)[nH]4)cc3)cc2)[nH]1)c1ccccc1 [Example 94-38, (1R)-2-((2S)-2-(5-(4′-(2-((2S)-1-(2-fluorobenzoyl)-2-pyrrolidinyl)-1H-imidazol-5-yl)-4-biphenylyl)-1H-imidazol-2-yl)-1-pyrrolidinyl)-N,N-dimethyl-2-oxo-1-phenylethanamine] | 0.001 to 0.999 nM | 
7 | CN(C)[C@@H](C(=O)N1CCC[C@H]1c1ncc(-c2ccc(-c3ccc(-c4cnc([C@@H]5CCCN5C(=O)c5cscn5)[nH]4)cc3)cc2)[nH]1)c1ccccc1 [Example 94-42, (1R)-N,N-dimethyl-2-oxo-1-phenyl-2-((2S)-2-(5-(4′-(2-((2S)-1-(1,3-thiazol-4-ylcarbonyl)-2-pyrrolidinyl)-1H-imidazol-5-yl)-4-biphenylyl)-1H-imidazol-2-yl)-1-pyrrolidinyl)ethanamine] | 0.001 to 0.999 nM | 
8 | CN(C)C(C(=O)N1CCC[C@H]1c1ncc(-c2ccc(-c3ccc(-c4cnc([C@@H]5CCCN5C(=O)[C@@H](c5ccccc5)N(C)C)[nH]4)cc3)cc2)[nH]1)c1ccc(Cl)nc1 (stereo partly drawn) [Example 94-44, 1-(6-chloro-3-pyridinyl)-2-((2S)-2-(5-(4′-(2-((2S)-1-((2R)-2-(dimethylamino)-2-phenylacetyl)-2-pyrrolidinyl)-1H-imidazol-5-yl)-4-biphenylyl)-1H-imidazol-2-yl)-1-pyrrolidinyl)-N,N-dimethyl-2-oxoethanamine] | 0.001 to 0.999 nM | 
9 | CN(C)C(C(=O)N1CCC[C@H]1c1ncc(-c2ccc(-c3ccc(-c4cnc([C@@H]5CCCN5C(=O)[C@@H](c5ccccc5)N(C)C)[nH]4)cc3)cc2)[nH]1)c1cccnc1 (stereo partly drawn) [Example 94-45, 2-((2S)-2-(5-(4′-(2-((2S)-1-((2R)-2-(dimethylamino)-2-phenylacetyl)-2-pyrrolidinyl)-1H-imidazol-5-yl)-4-biphenylyl)-1H-imidazol-2-yl)-1-pyrrolidinyl)-N,N-dimethyl-2-oxo-1-(3-pyridinyl)ethanamine] | 0.001 to 0.999 nM | 
10 | CN(C)C(C(=O)N1CCC[C@H]1c1ncc(-c2ccc(-c3ccc(-c4cnc([C@@H]5CCCN5C(=O)[C@@H](c5ccccc5)N(C)C)[nH]4)cc3)cc2)[nH]1)c1ccccn1 (stereo partly drawn) [Example 94-46, 2-((2S)-2-(5-(4′-(2-((2S)-1-((2R)-2-(dimethylamino)-2-phenylacetyl)-2-pyrrolidinyl)-1H-imidazol-5-yl)-4-biphenylyl)-1H-imidazol-2-yl)-1-pyrrolidinyl)-N,N-dimethyl-2-oxo-1-(2-pyridinyl)ethanamine] | 0.001 to 0.999 nM | 
11 | CN(C)[C@@H](C(=O)N1CCC[C@H]1c1ncc(-c2ccc(-c3ccc(-c4cnc([C@@H]5CCCN5C(=O)Cc5cccs5)[nH]4)cc3)cc2)[nH]1)c1ccccc1 [Example 94-47, (1R)-N,N-dimethyl-2-oxo-1-phenyl-2-((2S)-2-(5-(4′-(2-((2S)-1-(2-thienylacetyl)-2-pyrrolidinyl)-1H-imidazol-5-yl)-4-biphenylyl)-1H-imidazol-2-yl)-1-pyrrolidinyl)ethanamine] | 0.001 to 0.999 nM | 
12 | CN(C)[C@@H](C(=O)N1CCC[C@H]1c1ncc(-c2ccc(-c3ccc(-c4cnc([C@@H]5CCCN5C(=O)Cc5ccsc5)[nH]4)cc3)cc2)[nH]1)c1ccccc1 [Example 94-48, (1R)-N,N-dimethyl-2-oxo-1-phenyl-2-((2S)-2-(5-(4′-(2-((2S)-1-(3-thienylacetyl)-2-pyrrolidinyl)-1H-imidazol-5-yl)-4-biphenylyl)-1H-imidazol-2-yl)-1-pyrrolidinyl)ethanamine] | 0.001 to 0.999 nM | 
13 | CN(C)[C@@H](C(=O)N1CCC[C@H]1c1ncc(-c2ccc(-c3ccc(-c4cnc([C@@H]5CCCN5C(=O)Cc5cccc6ccccc56)[nH]4)cc3)cc2)[nH]1)c1ccccc1 [Example 94-49, (1R)-N,N-dimethyl-2-((2S)-2-(5-(4′-(2-((2S)-1-(1-naphthylacetyl)-2-pyrrolidinyl)-1H-imidazol-5-yl)-4-biphenylyl)-1H-imidazol-2-yl)-1-pyrrolidinyl)-2-oxo-1-phenylethanamine] | 0.001 to 0.999 nM | 
14 | CN(C)[C@@H](C(=O)N1CCC[C@H]1c1ncc(-c2ccc(-c3ccc(-c4cnc([C@@H]5CCCN5C(=O)Cc5cnc[nH]5)[nH]4)cc3)cc2)[nH]1)c1ccccc1 [Example 94-50, (1R)-2-((2S)-2-(5-(4′-(2-((2S)-1-(1H-imidazol-5-ylacetyl)-2-pyrrolidinyl)-1H-imidazol-5-yl)-4-biphenylyl)-1H-imidazol-2-yl)-1-pyrrolidinyl)-N,N-dimethyl-2-oxo-1-phenylethanamine] | 0.001 to 0.999 nM | 
15 | CN(C)[C@@H](C(=O)N1CCC[C@H]1c1ncc(-c2ccc(-c3ccc(-c4cnc([C@@H]5CCCN5C(=O)Cc5ccccc5F)[nH]4)cc3)cc2)[nH]1)c1ccccc1 [Example 94-51, (1R)-2-((2S)-2-(5-(4′-(2-((2S)-1-((2-fluorophenyl)acetyl)-2-pyrrolidinyl)-1H-imidazol-5-yl)-4-biphenylyl)-1H-imidazol-2-yl)-1-pyrrolidinyl)-N,N-dimethyl-2-oxo-1-phenylethanamine] | 0.001 to 0.999 nM | 
16 | CN(C)[C@@H](C(=O)N1CCC[C@H]1c1ncc(-c2ccc(-c3ccc(-c4cnc([C@@H]5CCCN5C(=O)Cc5cccc(F)c5)[nH]4)cc3)cc2)[nH]1)c1ccccc1 [Example 94-52, (1R)-2-((2S)-2-(5-(4′-(2-((2S)-1-((3-fluorophenyl)acetyl)-2-pyrrolidinyl)-1H-imidazol-5-yl)-4-biphenylyl)-1H-imidazol-2-yl)-1-pyrrolidinyl)-N,N-dimethyl-2-oxo-1-phenylethanamine] | 0.001 to 0.999 nM | 
17 | CN(C)[C@@H](C(=O)N1CCC[C@H]1c1ncc(-c2ccc(-c3ccc(-c4cnc([C@@H]5CCCN5C(=O)Cc5ccc(F)cc5)[nH]4)cc3)cc2)[nH]1)c1ccccc1 [Example 94-53, (1R)-2-((2S)-2-(5-(4′-(2-((2S)-1-((4-fluorophenyl)acetyl)-2-pyrrolidinyl)-1H-imidazol-5-yl)-4-biphenylyl)-1H-imidazol-2-yl)-1-pyrrolidinyl)-N,N-dimethyl-2-oxo-1-phenylethanamine] | 0.001 to 0.999 nM | 
18 | CN(C)C(C(=O)N1CCCC1c1nc(-c2ccc(-c3ccc(-c4cnc(C5CCCN5C(=O)Cc5csc6ccccc56)[nH]4)cc3)cc2)c[nH]1)c1ccccc1 [Example 94-54, (1R)-2-((2S)-2-(5-(4′-(2-((2S)-1-(1-benzothiophen-3-ylacetyl)-2-pyrrolidinyl)-1H-imidazol-5-yl)-4-biphenylyl)-1H-imidazol-2-yl)-1-pyrrolidinyl)-N,N-dimethyl-2-oxo-1-phenylethanamine] |  | 0.001 to 0.999 nM
19 | CN(C)[C@@H](C(=O)N1CCC[C@H]1c1ncc(-c2ccc(-c3ccc(-c4cnc([C@@H]5CCCN5C(=O)Cc5noc6ccccc56)[nH]4)cc3)cc2)[nH]1)c1ccccc1 [Example 94-55, (1R)-2-((2S)-2-(5-(4′-(2-((2S)-1-(1,2-benzisoxazol-3-ylacetyl)-2-pyrrolidinyl)-1H-imidazol-5-yl)-4-biphenylyl)-1H-imidazol-2-yl)-1-pyrrolidinyl)-N,N-dimethyl-2-oxo-1-phenylethanamine] | 0.001 to 0.999 nM | 
20 | CN(C)[C@@H](C(=O)N1CCC[C@H]1c1ncc(-c2ccc(-c3ccc(-c4cnc([C@@H]5CCCN5C(=O)Cc5c[nH]c6ccccc56)[nH]4)cc3)cc2)[nH]1)c1ccccc1 [Example 94-56, (1R)-2-((2S)-2-(5-(4′-(2-((2S)-1-(1H-indol-3-ylacetyl)-2-pyrrolidinyl)-1H-imidazol-5-yl)-4-biphenylyl)-1H-imidazol-2-yl)-1-pyrrolidinyl)-N,N-dimethyl-2-oxo-1-phenylethanamine] | 0.001 to 0.999 nM | 
